System: U266
Assay: MTT viability assay, U266
Format: cell-based
Settings: Homo sapiens, U-266, Multiple Myeloma, read-out: IC50 Avg ± s.d. (n = 3), U266
Excerpt: Cell Lines: PC-9 cell line used was obtained from Sigma Aldrich and grown in RPMI 1640 medium with 10% fetal bovine serum and 1% penicillin/streptomycin. HCC4006, U266, MM1.s, and Beas-2B cell lines were obtained from ATCC and cultured in either RPMI 1640 or DMEM with 10% fetal bovine serum and 1% penicillin/streptomycin. All cell lines were also checked for mycoplasma every six months and subjected to short tandem repeat (STR) analysis for cell line validation. CRISPR Cas9: CRISPR Guide RNA 2 targeting ERO1α and CRISPR Guide RNA 4 were purchased from Genscript in the pLentiCRISPR V2 plasmid containing puromycin/ampicillin selection marker. Lentivirus was made from HEK 293T cells by co-transfection with GuideRNA of interest, pVSVG, and pPAX2 plasmids. […] Plate was then read on the BioTek Cytation 5 at 530/590 nm. […] Plate was then read at 570 nm. Treated wells were all compared to DMSO control wells to calculate percent growth inhibition and the IC50 was calculated using GraphPad (log(inhibitor) vs growth inhibition). […] Images were then quantified using ImageJ. […] Cells were aliquoted at 1 million cells per PCR tube in PBS and heated in Bio-Rad T100 thermal cycler at indicated temperatures (RT, 46° C., 48° C., 50° C., 52° C., 54° C., 56°, 58° C., and 60° C.) for 3 minutes and aggregation temperature was determined by western blot analysis. […]

SMILES: CN(C)c1ccc(/C=C2\Oc3cc(O)ccc3C2=O)cc1 [Compound T151742]
- IC50: 8.93 ± 1.13 µM

Source: patent publication US20250064773A1, “TARGETING ERO1 ALPHA WITH AURONE DERIVATIVES” (West Virginia University Board of Governors on behalf of …, priority 2021, published 2025)
